{
  "source": "patent US20240108745A1",
  "about": "“BIOACTIVE SUBSTANCE CONJUGATE, PREPARATION METHOD THEREFOR AND USE THEREOF” (MEDILINK THERAPEUTICS (SUZHOU) CO., LTD., priority 2021, published 2024)",
  "key": {"HCC1806 cells": {"test_system": "HCC1806 cells", "assay": "Assay I of bioactive molecules on cell viability in vitro (CCK8)", "assay_type": "cell-based", "conditions": "Homo sapiens, HCC1806, 72 h; 7500 cells/well, 3 days; read-out: EC50(nM), killing of HCC1806 cells", "protocol": "(§1) Tumor cells were first cultured; the bioactive molecules of the present disclosure were co-cultured with tumor cells, and then CCK8 reagent (Dojindo Laboratories (Shanghai), Cat: CK04, Lot: JJ744) was added, and the activity of dehydrogenase in mitochondria was detected by reading (detection wavelength 450 nm) on a microplate reader (manufacturer: Molecular Devices, model: SpectraMax M2), to evaluate the inhibitory effect of bioactive molecules on cell proliferation.\n(§2) In vitro cell viability assay method: bioactive molecules (12 concentration gradients) were diluted with corresponding assay medium (containing 2% FBS). The tumor cells were digested by conventional methods using trypsin, and cells in tube were collected and counted, then resuspended in the corresponding assay media (containing 2% FBS). The diluted bioactive molecules were added to a 96-well plate, followed by the cells. Then, 20 μL of CCK8 reagent was added to each well, and the reaction was carried out for 4 h, then the plate was read on a microplate reader (detection wavelength was 450 nm). The experimental results are shown in Tables 6.1, 6.2, 6.3, 6.4, and 6.5."}, "LS174T cells": {"test_system": "LS174T cells", "assay": "Assay I of bioactive molecules on cell viability in vitro (CCK8)", "assay_type": "cell-based", "conditions": "Homo sapiens, read-out: EC50(nM), killing of LS174T cells", "protocol": "as §1, §2"}, "NCl-H322M cells": {"test_system": "NCl-H322M cells", "assay": "Assay I of bioactive molecules on cell viability in vitro (CCK8)", "assay_type": "cell-based", "conditions": "Homo sapiens, read-out: EC50(nM), killing of NCl-H322M cells", "protocol": "as §1, §2"}, "PANC-1 cells": {"test_system": "PANC-1 cells", "assay": "Assay I of bioactive molecules on cell viability in vitro (CCK8)", "assay_type": "cell-based", "conditions": "Homo sapiens, read-out: EC50(nM), killing of PANC-1 cells", "protocol": "as §1, §2"}, "A431": {"test_system": "A431", "assay": "Assay II of bioactive molecules on cell viability in vitro (CCK8)", "assay_type": "cell-based", "conditions": "Homo sapiens, A-431; CCK8, 3-4 days", "protocol": "as §1, with “Tumor cells NUCG-4, PC-9, HT29, NCI-H358, KYSE520, A431 and A549 were first” for “Tumor cells were first”, “bioactive molecules or fragments of the” for “bioactive molecules of the”\n(§3) In vitro cell viability assay method: the tumor cells were digested by conventional methods using trypsin, and cells in tube were collected and counted, and then resuspended in the corresponding assay media (containing 2% FBS), which was added to a 96-well plate at 5000-10000 cells/well. Bioactive molecules were diluted with DMSO, and then 100 μL was added to a 96-well plate, the initial concentration was 10 μM, followed by 3-fold serial dilution (12 concentration gradients). The plate was incubated for 3-4 days at 37° C. under 5% CO2. Then, 20 μL of CCK8 reagent was added to each well, and the reaction was carried out for 2-6 h. The plate was read on a microplate reader (detection wavelength was 450 nm)."}, "A549": {"test_system": "A549", "assay": "Assay II of bioactive molecules on cell viability in vitro (CCK8)", "assay_type": "cell-based", "conditions": "Homo sapiens, CCK8, 3-4 days", "protocol": "as §1, with “Tumor cells NUCG-4, PC-9, HT29, NCI-H358, KYSE520, A431 and A549 were first” for “Tumor cells were first”, “bioactive molecules or fragments of the” for “bioactive molecules of the”\nas §3"}, "HT29": {"test_system": "HT29", "assay": "Assay II of bioactive molecules on cell viability in vitro (CCK8)", "assay_type": "cell-based", "conditions": "Homo sapiens, HT-29; CCK8, 3-4 days", "protocol": "as §1, with “Tumor cells NUCG-4, PC-9, HT29, NCI-H358, KYSE520, A431 and A549 were first” for “Tumor cells were first”, “bioactive molecules or fragments of the” for “bioactive molecules of the”\nas §3"}, "NCI-H358": {"test_system": "NCI-H358", "assay": "Assay II of bioactive molecules on cell viability in vitro (CCK8)", "assay_type": "cell-based", "conditions": "Homo sapiens, CCK8, 3-4 days", "protocol": "as §1, with “Tumor cells NUCG-4, PC-9, HT29, NCI-H358, KYSE520, A431 and A549 were first” for “Tumor cells were first”, “bioactive molecules or fragments of the” for “bioactive molecules of the”\nas §3"}, "NUCG-4": {"test_system": "NUCG-4", "assay": "Assay II of bioactive molecules on cell viability in vitro (CCK8)", "assay_type": "cell-based", "conditions": "CCK8, 3-4 days", "protocol": "as §1, with “Tumor cells NUCG-4, PC-9, HT29, NCI-H358, KYSE520, A431 and A549 were first” for “Tumor cells were first”, “bioactive molecules or fragments of the” for “bioactive molecules of the”\nas §3"}, "PC-9": {"test_system": "PC-9", "assay": "Assay II of bioactive molecules on cell viability in vitro (CCK8)", "assay_type": "cell-based", "conditions": "Homo sapiens, CCK8, 3-4 days", "protocol": "as §1, with “Tumor cells NUCG-4, PC-9, HT29, NCI-H358, KYSE520, A431 and A549 were first” for “Tumor cells were first”, “bioactive molecules or fragments of the” for “bioactive molecules of the”\nas §3"}, "HT29 cells": {"test_system": "HT29 cells", "assay": "Assay III of bioactive molecules on cell viability in vitro (CCK8)", "assay_type": "cell-based", "conditions": "Homo sapiens, HT-29; CCK8, 3-4 days (Assay III); read-out: EC50(nM), killing of HT29 cells", "protocol": "Tumor cells HT29 (having a same source as the above) were first cultured. The bioactive molecules or fragments of the present disclosure were co-cultured with tumor cells, and then CCK8 reagent (Dojindo Laboratories (Shanghai), Cat: CK04, Lot: JJ744) was added, and the activity of dehydrogenase in mitochondria was detected by reading (detection wavelength 450 nm) on a microplate reader (manufacturer: Molecular Devices, model: SpectraMax M2), to evaluate the inhibitory effect of bioactive molecules on cell proliferation.\nas §3, with “then” for “then 100 μL was”, “plate at 100 μL,” for “plate,”, “[…],” for “10 μM,”"}, "[1]": {"conditions": "human plasma 37° C., ADC 200 μg/mL, A1.9 released from B7H3-ADC-07(DAR8), DXD from B7H3-C1-ADC-21(DAR4)", "protocol": "The appropriate concentration of internal standard stock solution was prepared with DMSO, and then acetonitrile or other reagents were used to prepare the appropriate concentration of the internal standard-containing precipitant.\nIncubation of sample: the bacteriostatic agent ProClin was added to the plasma of each genera (human, cynomolgus monkey, ICR mouse) and PBS containing 1% BSA, and the final concentration of ProClin was 0.1%, Sterile operations were adopted. 40 μL working solution of test substance and 360 μL of human plasma were mixed to prepare 200 μg/mL of incubation sample. The plate was sealed with a film, and then incubated at 37° C. under 5% CO2 in an incubator, with a shaking speed of 80 times/mm. At 0 h, 4 h, 24 h, 2 d, 3 d, 7 d, 10 d, 14 d, 17 d, 21 d and 28 d, 20 μL of plasma sample was transferred, to which was added 200 μL of precipitant (containing internal standard), and completely mixed to precipitate the proteins.\nAll samples were subject to protein precipitating, and then centrifuged to collect the supernatant, which was diluted with water, and analyzed by LC-MS/MS."}, "[2]": {"conditions": "cited from earlier work"}},
  "note": "Where two headings read alike, the source gives them in different places.",
  "data": [
    {"compound": "CC[C@@]1(O)C(=O)OCc2c1cc1n(c2=O)Cc2c-1nc1cc(F)c(C)c3c1c2[C@@H](NC(=O)CO)CC3", "note": "[DXD, DXd, reference compound]", "values": [
      {"measurement": "EC50", "setting": "HCC1806 cells", "result": 37, "unit": "nM"},
      {"measurement": "EC50", "setting": "LS174T cells", "result": 82, "unit": "nM"},
      {"measurement": "EC50", "setting": "NCl-H322M cells", "result": 76.9, "unit": "nM"},
      {"measurement": "EC50", "setting": "PANC-1 cells", "result": 966, "unit": "nM"},
      {"measurement": "EC50", "setting": "A431", "result": 25.1, "unit": "nM"},
      {"measurement": "EC50", "setting": "A549", "result": 262, "unit": "nM"},
      {"measurement": "EC50", "setting": "HT29", "result": 210, "unit": "nM"},
      {"measurement": "EC50", "setting": "NCI-H358", "result": 262, "unit": "nM"},
      {"measurement": "EC50", "setting": "NUCG-4", "result": 43.3, "unit": "nM"},
      {"measurement": "EC50", "setting": "PC-9", "result": 16.7, "unit": "nM"},
      {"measurement": "EC50", "setting": "HT29 cells", "result": 22.9, "unit": "nM"},
      {"measurement": "Release ratio (%)", "setting": "[1]; day 0", "result": 0.348, "unit": "%"},
      {"measurement": "Release ratio (%)", "setting": "[1]; day 0.17", "result": 1.786, "unit": "%"},
      {"measurement": "Release ratio (%)", "setting": "[1]; day 1", "result": 2.765, "unit": "%"},
      {"measurement": "Release ratio (%)", "setting": "[1]; day 2", "result": 3.603, "unit": "%"},
      {"measurement": "Release ratio (%)", "setting": "[1]; day 3", "result": 3.763, "unit": "%"},
      {"measurement": "Release ratio (%)", "setting": "[1]; day 7", "result": 4.116, "unit": "%"},
      {"measurement": "Release ratio (%)", "setting": "[1]; day 10", "result": 5.126, "unit": "%"},
      {"measurement": "Release ratio (%)", "setting": "[1]; day 14", "result": 5.786, "unit": "%"},
      {"measurement": "Release ratio (%)", "setting": "[1]; day 17", "result": 6.446, "unit": "%"},
      {"measurement": "Release ratio (%)", "setting": "[1]; day 21", "result": 7.494, "unit": "%"},
      {"measurement": "Release ratio (%)", "setting": "[1]; day 28", "result": 12.659, "unit": "%"}
    ]},
    {"compound": "Trodelvy", "values": [
      {"measurement": "plasma half-life", "setting": "[2]", "result": "less than 24 hours"}
    ]}
  ]
}
